The results in this text go back to US6613719B1, “3-(4,5-dihydroisoxazol-3-yl)-substituted benzoylpyrazoles” (BASF Aktiengesellschaft, priority 1999, dated 2003).

Take `Cc1c(C(=O)c2cnn(C)c2O)ccc(S(C)(=O)=O)c1C1=NOC(CCl)C1` (stereo not shown) [Compound 2.1, 4-[2-Methyl-3-(5-chloromethyl-4,5-dihydroisoxazol-3-yl)-4-methyl-sulfonylbenzoyl]-5-hydroxy-1-methyl-1H-pyrazole]: the melting point (in general, the temperature, or range, at which the solid turns liquid) was in the range of 76 to 78 °C.
